This is an account of results in ChEMBL document CHEMBL3808282, “Gram Scale Syntheses of (-)-Incarvillateine and Its Analogs. Discovery of Potent Analgesics for Neuropathic Pain” (2016).

Active and inactive are the calls of the source. The calls are words filed in the database; no cut-off is given here.

In test [1] the test system is Mus musculus. Put plainly: Antinociceptive effect in Kunming mouse assessed as inhibition of acetic acid-induced writhing response at 20 mg/kg, sc administered 30 mins prior to acetic acid challenge measured 5 mins post injection for 15 mins. The test is classed as functional. For orientation: In writhing tests, fewer writhes than in controls are read as antinociception.

Test [2] deals with Mus musculus. The experiment in a line: Antinociceptive effect in Kunming mouse assessed as inhibition of acetic acid-induced writhing response at 20 mg/kg, ip administered 30 mins prior to acetic acid challenge measured 5 mins post injection for 15 mins. The test is classed as functional.
The subject of test [3] is Mus musculus. Put plainly: Antinociceptive activity in ip dosed ICR mouse assessed as reduction in licking and biting time during first phase administered 10 mins prior to formalin challenge measured for 10 mins relative to vehicle control. The test is classed as functional, organism-based.
In test [4] the test system is Mus musculus. The experiment in a line: Antinociceptive activity in ICR mouse assessed as reduction in licking and biting time during first phase at 10 mg/kg, ip administered 10 mins prior to formalin challenge measured for 10 mins (reference value: 156 +/- 8 s). The format is functional.
Test [5] relates to Mus musculus. Put plainly: Antinociceptive effect in C57BL/6 mouse assessed as inhibition of spared nerve injury-induced neuropathic pain response at 10 to 20 mg/kg, ip measured after 5 to 7 days of recovery by Von Frey filament assay. The format is functional, organism-based.
Test [6] has as its system Mus musculus. The experiment in a line: Antinociceptive activity in ip dosed ICR mouse assessed as reduction in licking and biting time during second phase administered 10 mins prior to formalin challenge measured for 10 to 30 mins relative to vehicle control. The test is classed as functional, organism-based.
Test [7] relates to Mus musculus. Put plainly: Antinociceptive activity in ICR mouse assessed as reduction in licking and biting time during second phase at 20 mg/kg, ip administered 10 mins prior to formalin challenge measured for 10 to 30 mins (reference value: 159 +/- 25 s). The test is classed as functional.
Test [8] has as its system Mus musculus. The experiment in a line: Antinociceptive activity in ICR mouse assessed as reduction in licking and biting time during first phase at 20 mg/kg, ip administered 10 mins prior to formalin challenge measured for 10 mins (reference value: 156 +/- 8 s). The format is functional.
Test [9] deals with Mus musculus. The experiment in a line: Antinociceptive activity in ICR mouse assessed as reduction in licking and biting time during second phase at 10 mg/kg, ip administered 10 mins prior to formalin challenge measured for 10 to 30 mins (reference value: 159 +/- 25 s). The format is functional.
For test [10], the system named is Mus musculus. The experiment in a line: Antinociceptive activity in ICR mouse assessed as reduction in licking and biting time during second phase at 10 mg/kg, ip administered 10 mins prior to formalin challenge measured for 10 to 30 mins (reference value: 178 +/- 19 s). The format is functional.
Test [11] has as its system Mus musculus. The experiment in a line: Antinociceptive effect in C57BL/6 mouse assessed as inhibition of spared nerve injury-induced neuropathic pain response at 10 to 40 mg/kg, ip measured after 5 to 7 days of recovery by Von Frey filament assay. The format is functional, organism-based.
Test [12] has as its system Mus musculus. The experiment in a line: Antinociceptive effect in C57BL/6 mouse assessed as inhibition of spared nerve injury-induced neuropathic pain response at 100 mg/kg, ip measured after 5 to 7 days of recovery by Von Frey filament assay. The test is classed as functional, organism-based.
Test [13] has as its system Mus musculus. Put plainly: Antinociceptive activity in ICR mouse assessed as reduction in licking and biting time during second phase at 10 mg/kg, ip administered 10 mins prior to formalin challenge measured for 10 to 30 mins (reference value: 159 +/- 15 s). The test is classed as functional.
The subject of test [14] is Mus musculus. Put plainly: Antinociceptive effect in Kunming mouse assessed as inhibition of acetic acid-induced writhing response at 100 mg/kg, sc administered 30 mins prior to acetic acid challenge measured 5 mins post injection for 15 mins. The test is classed as functional.
The test system of test [15] is Mus musculus. Put plainly: Antinociceptive effect in Kunming mouse assessed as inhibition of acetic acid-induced writhing response at 100 mg/kg, ip administered 30 mins prior to acetic acid challenge measured 5 mins post injection for 15 mins. The format is functional.

`C=CCN1C[C@H]2[C@H](C)[C@H](OC(=O)[C@H]3[C@H](c4ccc(O)c(OC)c4)[C@H](C(=O)O[C@@H]4C[C@@H]5[C@@H](CN(CC=C)C[C@@H]5C)[C@@H]4C)[C@H]3c3ccc(O)c(OC)c3)C[C@H]2[C@@H](C)C1`: the inhibition in vivo at 20 mg/kg with Mus musculus [1] worked out at 70.6%.

As for `COc1cc([C@H]2[C@H](C(=O)O[C@@H]3C[C@@H]4[C@@H](CN(C)C[C@@H]4C)[C@@H]3C)[C@H](c3ccc(O)c(OC)c3)[C@H]2C(=O)O[C@@H]2C[C@@H]3[C@@H](CN(C)C[C@@H]3C)[C@@H]2C)ccc1O` [INCARVILLATEINE], the inhibition in vivo at 20 mg/kg with Mus musculus [2] worked out at 78.5%; in the test on Mus musculus [1] it was 69.2%. For the same compound, the Activity result in the test with Mus musculus [3] and in the test with Mus musculus [6] was “Dose-dependent effect” in each case. Besides, the Time is on record as 101 s with Mus musculus [4], 1 s in the test with Mus musculus [7], 51 s in the test with Mus musculus [8] and 67 s in the test on Mus musculus [9]. Besides, the inhibition result in the test with Mus musculus [5] is “Active”.

As for `C=C1CN(C)C[C@H]2[C@H](C)[C@H](OC(=O)[C@H]3[C@H](c4ccc(O)c(OC)c4)[C@H](C(=O)O[C@@H]4C[C@H]5C(=C)CN(C)C[C@H]5[C@@H]4C)[C@H]3c3ccc(O)c(OC)c3)C[C@@H]12`, the values for the inhibition in vivo at 20 mg/kg in the test with Mus musculus [2] and with Mus musculus [1] were 89.4% and 77.8%, respectively. Moreover, in the test on Mus musculus [10], the Time came out at 87 s. The inhibition entry with Mus musculus [11] was “Active”.

As for `COc1cc([C@H]2[C@H](C(=O)OCCC3CCN(C)CC3)[C@H](c3ccc(O)c(OC)c3)[C@H]2C(=O)OCCC2CCN(C)CC2)ccc1O`, the inhibition in vivo at 20 mg/kg in the test on Mus musculus [1] was found to be 22.4%.

In the case of `NCC1(CC(=O)O)CCCCC1`, in the test with Mus musculus [12], the inhibition entry was “Active”.

On to `COc1cc([C@H]2[C@H](C(=O)OCC3CCN(C)CC3)[C@H](c3ccc(O)c(OC)c3)[C@H]2C(=O)OCC2CCN(C)CC2)ccc1O`, for which the Time in the test with Mus musculus [13] was found to be 95 s. Moreover, the inhibition in vivo at 20 mg/kg in the test with Mus musculus [1] was found to be 75.7%. The inhibition result in the test with Mus musculus [11] was “Active”.

In the case of `COc1cc([C@H]2[C@H](C(=O)O[C@@H]3C[C@@H]4[C@@H](CN(CC5CC5)C[C@@H]4C)[C@@H]3C)[C@H](c3ccc(O)c(OC)c3)[C@H]2C(=O)O[C@@H]2C[C@@H]3[C@@H](CN(CC4CC4)C[C@@H]3C)[C@@H]2C)ccc1O`, the inhibition in vivo at 20 mg/kg with Mus musculus [2] was 88.1%.

Turning to `COc1cc([C@H]2[C@H](C(=O)O[C@@H]3C[C@@H]4[C@@H](CN(C)C[C@H]4C)[C@@H]3C)[C@H](c3ccc(O)c(OC)c3)[C@H]2C(=O)O[C@@H]2C[C@@H]3[C@@H](CN(C)C[C@H]3C)[C@@H]2C)ccc1O`, the inhibition in vivo at 20 mg/kg in the test with Mus musculus [1] amounted to 65.1%.

As to `COc1cc([C@H]2[C@H](C(=O)OC3CCN(C)CC3)[C@H](c3ccc(O)c(OC)c3)[C@H]2C(=O)OC2CCN(C)CC2)ccc1O`, in the test with Mus musculus [1], the inhibition in vivo at 20 mg/kg is 41.2%.

For `CCCCN1C[C@H]2[C@H](C)[C@H](OC(=O)[C@H]3[C@H](c4ccc(O)c(OC)c4)[C@H](C(=O)O[C@@H]4C[C@@H]5[C@@H](CN(CCCC)C[C@@H]5C)[C@@H]4C)[C@H]3c3ccc(O)c(OC)c3)C[C@H]2[C@@H](C)C1`, the inhibition in vivo at 20 mg/kg in the test on Mus musculus [1] worked out at 13.1%.

Take `CCCN1C[C@H]2[C@H](C)[C@H](OC(=O)[C@H]3[C@H](c4ccc(O)c(OC)c4)[C@H](C(=O)O[C@@H]4C[C@@H]5[C@@H](CN(CCC)C[C@@H]5C)[C@@H]4C)[C@H]3c3ccc(O)c(OC)c3)C[C@H]2[C@@H](C)C1`: the inhibition in vivo at 20 mg/kg in the test with Mus musculus [1] amounted to 48.2%.

In the case of `CC(=O)Oc1ccccc1C(=O)O` [ASPIRIN DL-LYSINE], the inhibition in vivo at 100 mg/kg in the test on Mus musculus [14] worked out at 81.9%; in the test with Mus musculus [15], 85.4%.

In general, inhibition in vivo refers to the change of the read-out against control, counted positive when it falls.
